These are literature values, as cited in patent US9060950B2, “Emetic embedded capsule” (Paul H. Rosenberg, Proximate Concepts, LLC., priority 2005, dated 2015).

Where a name gives a salt, the structure may show the parent alone.

Test in data set [1]: not given
The source holds these as a separate data set.

`CNCCC(Oc1ccc(C(F)(F)F)cc1)c1ccccc1` (centres unmarked) [fluoxetine hydrochloride, Fluoxetine hydrochloride]: the “ingested amount reported to have caused death” value (ingestion) was 520 mg. With `CC(=O)Nc1ccc(O)cc1` [acetaminophen, Acetaminophen], the “amount ingested following which hepatic toxicity may occur” value (in vivo) was 7.5 grams. Besides, the “amount ingested following which fatalities may occur” value (ingestion) is 15 grams. `Cc1nnc2n1-c1ccc(Cl)cc1C(c1ccccc1Cl)=NC2` [Triazolm]: the “amount ingested after which manifestations of overdose may occur” value (ingestion) was 2 mg. Consider `O.O.O.O.O.O.O.O=S(=O)([O-])[O-].[Zn+2]` [Zinc sulfate heptahydrate], for which, in data set [1], the “amount ingested that causes emesis” value is 0.6 grams.
